Values after ≈ are worked out from the molar mass of the structure shown.
Legend:
[1] = test system: P 388 (PS) mouse tumor; assay: P 388 (PS) mouse tumor test, life extension in vivo
From the text: The dried methylene chloride extracts (derived from the shipping solution and from extraction of the chopped animals) were further separated by taking small portions and subjecting each to solvent partitioning beginning with methanol:water (9:1)/hexane (4 times). […] The aqueous mthanol layers were further diluted with water to a ratio of 8:2 and were extracted repeatedly with carbon tetrachloride (9 times). The carbon tetrachloride extracts were dried and assayed for antitumor activity.
(§1) The isolation and purification methods chosen can be monitored at each step by performing in vitro and/or in vivo antitumor tests as described by R. I. Geran, N. H. Greenberg, M. M. MacDonald, A. M. Schumacher and B. S. Abbot in Cancer Chemother. Rep. Part 3, Vol. 3 (2): 1-103 (1972); and by Schmidt, J. M.; Pettit, G. R. in Experimentia, 34: 659-660 (1978). Such tests include the determination of the concentration of active material rquired to inhibit the growth of tumor cells in culture, (e.g., the concentration required to inhibit growth by 50 percent or the ED50) and of the dose of active material required to prolong the life of mice bearing transplanted tumors.

[2] = test system: murine P388 lymphocytic leukemia (PS cell line); assay: inhibition of growth of PS tumor cells in culture (ED50); type: cell-based; settings: for IC50: Mus musculus
From the text: as §1

Row | SMILES | IC50 ([2]; P388, PS cell line) [ng/mL] | in vivo life extension ([1]; at 185 μg/kg) [%] | also measured
1 | CCCC(=O)OC1/C(=C/C(=O)OC)CC2C[C@H]([C@@H](C)O)OC(=O)C[C@H](O)C[C@@H]3C[C@H](OC(=O)CC(C)C)C(C)(C)[C@](O)(C[C@@H]4CC(=CC(=O)OC)CC(/C=C/C(C)(C)C1(O)O2)O4)O3 (some centres unmarked) [Bryostatin 4] | – | – | increase in life extension ([1]; at 46 μg/kg): 62%
2 | COC(=O)C=C1CC2/C=C/C(C)(C)C3(O)OC(C/C(=C\C(=O)OC)C3OC(C)=O)C[C@H]([C@@H](C)O)OC(=O)C[C@H](O)C[C@@H]3C[C@H](OC(=O)CC(C)C)C(C)(C)[C@](O)(C[C@H](C1)O2)O3 (some centres unmarked) [Bryostatin 5] | 0.26 to 1.3 (≈ 0.3 to 1.5 nM) | 88 | –
3 | CCCC(=O)O[C@H]1C[C@H]2C[C@@H](O)CC(=O)O[C@@H]([C@@H](C)O)C[C@@H]3C/C(=C\C(=O)OC)[C@H](OC(C)=O)[C@@](O)(O3)C(C)(C)/C=C/[C@H]3C/C(=C\C(=O)OC)C[C@@H](C[C@](O)(O2)C1(C)C)O3 [Bryostatin 6] | – | 82 | ED50 ([2]; PS cell line): 3 ng/mL (≈ 3.52 nM)
4 | COC(=O)C=C1CC2/C=C/C(C)(C)C3(O)OC(C/C(=C\C(=O)OC)C3OC(C)=O)C[C@H]([C@@H](C)O)OC(=O)C[C@H](O)C[C@@H]3C[C@H](OC(C)=O)C(C)(C)[C@](O)(C[C@H](C1)O2)O3 (some centres unmarked) [Bryostatin 7] | 0.026 (≈ 0.0315 nM) | – | in vivo life extension ([1]; at 92 μg/kg): 77%
5 | CCCC(=O)OC1/C(=C/C(=O)OC)CC2C[C@H]([C@@H](C)O)OC(=O)C[C@H](O)C[C@@H]3C[C@H](OC(=O)CCC)C(C)(C)[C@](O)(C[C@@H]4CC(=CC(=O)OC)CC(/C=C/C(C)(C)C1(O)O2)O4)O3 (some centres unmarked) [Bryostatin 8] | – | – | IC50 ([2]; murine P388 lymphocytic leukemia assay (PS cell line), unit inferred): 1.3 ng/mL (≈ 1.48 nM)
